According to ChEMBL document CHEMBL6087464, “Design, Synthesis, and Biological Evaluation of 3,4-Dihydroisoquinolin-1(2H)-one Derivatives as Protein Arginine Methyltransferase 5 Inhibitors for the Treatment of Non-Hodgkin's Lymphoma” (J Med Chem, 2025):
Active and inactive are the calls of the source. The calls are words filed in the database; no cut-off is given here.

How the values were obtained:
[1] = tested on: Z-138; test: Antiproliferative activity against human Z138 cells measured after 7 days by CellTiter-Glo luminescence cell viability assay; type: functional, cell-based; settings: Z-138, 168 h
[2] = Toxicity in Sprague-Dawley rat assessed as structural changes in thymus at 31.25 to 125 mg/kg, po administered once a day for 14 days by H and E staining based analysis; type: organism-based; settings: in vivo, 336 h, dose 31.25-125 mg/kg, time 14 day
[3] = molecular target: T1, Cytochrome P450 3A4 (Homo sapiens, UniProt P08684); test: Inhibition of CYP3A4 (unknown origin) using testosterone as substrate; type: ADME
[4] = tested on: A-427; test: Antiproliferative activity against human A-427 cells measured after 4 to 5 days by CCK-8 assay; type: functional, cell-based
[5] = tested on: Z-138; test: Antitumor activity against human Z138 cells xenografted in female SCID.BG nude mouse assessed as tumor growth inhibition at 12.5 mg/kg, po administered twice a day for 21 days relative to control; type: functional; settings: Z-138, 504 h, time 21 day, read-out: TGI
[6] = tested on: NCI-H1975; test: Antiproliferative activity against human NCI-H1975 cells measured after 4 to 5 days by CCK-8 assay; type: functional, cell-based
[7] = tested on: MOLM-13; test: Antiproliferative activity against human MOLM-13 cells measured after 4 to 5 days by CCK-8 assay; type: functional, cell-based
[8] = Toxicity in Sprague-Dawley rat assessed as structural changes in caecum at 31.25 to 125 mg/kg, po administered once a day for 14 days by H and E staining based analysis; type: organism-based; settings: in vivo, 336 h, dose 31.25-125 mg/kg, time 14 day
[9] = molecular target: T1, Cytochrome P450 3A4; test: Inhibition of CYP3A4 (unknown origin) using midazolam as substrate; type: ADME
[10] = tested on: NCI-H1299; test: Antiproliferative activity against human NCI-H1299 cells measured after 4 to 5 days by CCK-8 assay; type: functional, cell-based
[11] = molecular target: Cytochrome P450 2D6 (Homo sapiens, UniProt P10635); test: Inhibition of CYP2D6 (unknown origin); type: ADME
[12] = tested on: T47D; test: Antiproliferative activity against human T47D cells measured after 4 to 5 days by CCK-8 assay; type: functional, cell-based
[13] = tested on: Ishikawa; test: Antiproliferative activity against human Ishikawa cells measured after 4 to 5 days by CCK-8 assay; type: functional, cell-based
[14] = Toxicity in Sprague-Dawley rat assessed as morphological changes in thymus at 31.25 to 125 mg/kg, po administered once a day for 14 days by H and E staining based analysis; type: organism-based; settings: in vivo, 336 h, dose 31.25-125 mg/kg, time 14 day
[15] = molecular target: Cytochrome P450 1A2 (Homo sapiens, UniProt P05177); test: Inhibition of CYP1A2 (unknown origin); type: ADME
[16] = Protein binding in mouse plasma; type: ADME, cell-free; settings: read-out: PPB (converted)
[17] = molecular target: Cytochrome P450 2C9 (Homo sapiens, UniProt P11712); test: Inhibition of CYP2C9 (unknown origin); type: ADME
[18] = Metabolic stability in mouse liver microsomes assessed as half-life at 1 uM measured upto 240 mins; type: ADME, Microsome
[19] = Metabolic stability in human liver microsomes assessed as half-life at 1 uM measured upto 240 mins; type: ADME, Microsome
[20] = Toxicity in Sprague-Dawley rat assessed as morphological changes in stomach at 31.25 to 125 mg/kg, po administered once a day for 14 days by H and E staining based analysis; type: organism-based; settings: in vivo, 336 h, dose 31.25-125 mg/kg, time 14 day
[21] = molecular target: T2, PRMT5/MEP50 complex (Homo sapiens, UniProt O14744+Q9BQA1); test: Binding affinity to PRMT5/MEP50 (unknown origin) assessed as dissociation rate constant (koff) by SPR analysis
[22] = Toxicity in female SCID.BG […] mouse xenografted with human Z138 cells assessed as body weight loss at 12.5 to 50 mg/kg, po administered twice a day for 21 days; type: organism-based; settings: in vivo, 504 h, dose 12.5-50 mg/kg, time 21 day
[23] = Toxicity in Sprague-Dawley rat assessed as structural changes in stomach at 31.25 to 125 mg/kg, po administered once a day for 14 days by H and E staining based analysis; type: organism-based; settings: in vivo, 336 h, dose 31.25-125 mg/kg, time 14 day
[24] = molecular target: Cytochrome P450 2C19 (Homo sapiens, UniProt P33261); test: Inhibition of CYP2C19 (unknown origin); type: ADME
[25] = tested on: Z-138; test: Antiproliferative activity against PRMT5 knockout human Z138 cells measured after 7 days by CellTiter-Glo luminescence cell viability assay; type: functional, cell-based; settings: Z-138, 168 h
[26] = molecular target: T2, PRMT5/MEP50 complex; test: Binding affinity to PRMT5/MEP50 (unknown origin) at 5 uM by SPR analysis; type: protein-complex assay
[27] = Protein binding in Sprague-Dawley rat plasma; type: ADME, cell-free; settings: read-out: PPB (converted)

T1 sequence (P08684 whole entry): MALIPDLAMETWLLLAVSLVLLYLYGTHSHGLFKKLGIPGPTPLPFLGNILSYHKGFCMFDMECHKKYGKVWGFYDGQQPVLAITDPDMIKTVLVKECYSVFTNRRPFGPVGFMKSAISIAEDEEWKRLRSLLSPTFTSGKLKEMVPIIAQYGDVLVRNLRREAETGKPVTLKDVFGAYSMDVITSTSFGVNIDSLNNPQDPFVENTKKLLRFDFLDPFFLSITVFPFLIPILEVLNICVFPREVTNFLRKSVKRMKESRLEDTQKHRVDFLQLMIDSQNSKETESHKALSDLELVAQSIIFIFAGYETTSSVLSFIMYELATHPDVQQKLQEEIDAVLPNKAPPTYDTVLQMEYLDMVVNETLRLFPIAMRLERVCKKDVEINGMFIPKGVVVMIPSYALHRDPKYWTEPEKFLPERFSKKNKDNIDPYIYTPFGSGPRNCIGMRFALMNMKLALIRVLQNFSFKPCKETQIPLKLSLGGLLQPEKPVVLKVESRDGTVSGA
Chain of Cytochrome P450 2C19 (P33261 whole entry): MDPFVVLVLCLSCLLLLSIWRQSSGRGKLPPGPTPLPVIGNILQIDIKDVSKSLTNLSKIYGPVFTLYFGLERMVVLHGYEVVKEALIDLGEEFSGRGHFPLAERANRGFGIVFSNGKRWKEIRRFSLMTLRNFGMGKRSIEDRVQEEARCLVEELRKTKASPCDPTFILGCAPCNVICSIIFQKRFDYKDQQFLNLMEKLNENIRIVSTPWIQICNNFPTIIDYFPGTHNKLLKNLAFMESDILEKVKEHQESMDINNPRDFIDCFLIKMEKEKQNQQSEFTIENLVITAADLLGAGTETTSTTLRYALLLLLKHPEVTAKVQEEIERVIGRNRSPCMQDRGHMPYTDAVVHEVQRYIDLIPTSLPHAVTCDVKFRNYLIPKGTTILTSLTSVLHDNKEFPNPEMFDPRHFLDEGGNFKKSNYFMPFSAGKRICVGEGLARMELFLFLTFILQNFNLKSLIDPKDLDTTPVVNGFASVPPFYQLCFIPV
T2 sequence (O14744 whole entry): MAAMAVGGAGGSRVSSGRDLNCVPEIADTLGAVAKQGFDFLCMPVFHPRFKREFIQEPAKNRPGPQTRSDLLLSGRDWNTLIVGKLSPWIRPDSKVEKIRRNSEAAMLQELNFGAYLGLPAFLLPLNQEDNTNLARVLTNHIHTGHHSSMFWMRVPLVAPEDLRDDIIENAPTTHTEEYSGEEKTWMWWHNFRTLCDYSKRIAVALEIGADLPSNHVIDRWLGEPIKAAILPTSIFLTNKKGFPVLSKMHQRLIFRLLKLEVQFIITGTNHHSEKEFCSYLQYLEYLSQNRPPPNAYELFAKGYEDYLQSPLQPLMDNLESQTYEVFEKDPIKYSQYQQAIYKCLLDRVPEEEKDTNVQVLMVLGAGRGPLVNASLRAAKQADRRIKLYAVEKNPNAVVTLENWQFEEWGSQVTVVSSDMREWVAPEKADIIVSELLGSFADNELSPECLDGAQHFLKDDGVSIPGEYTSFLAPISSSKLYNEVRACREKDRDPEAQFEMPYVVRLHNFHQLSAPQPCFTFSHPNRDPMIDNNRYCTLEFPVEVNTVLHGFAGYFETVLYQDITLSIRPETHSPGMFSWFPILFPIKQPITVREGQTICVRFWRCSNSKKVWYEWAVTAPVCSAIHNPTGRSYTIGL
T2 sequence (Q9BQA1 whole entry): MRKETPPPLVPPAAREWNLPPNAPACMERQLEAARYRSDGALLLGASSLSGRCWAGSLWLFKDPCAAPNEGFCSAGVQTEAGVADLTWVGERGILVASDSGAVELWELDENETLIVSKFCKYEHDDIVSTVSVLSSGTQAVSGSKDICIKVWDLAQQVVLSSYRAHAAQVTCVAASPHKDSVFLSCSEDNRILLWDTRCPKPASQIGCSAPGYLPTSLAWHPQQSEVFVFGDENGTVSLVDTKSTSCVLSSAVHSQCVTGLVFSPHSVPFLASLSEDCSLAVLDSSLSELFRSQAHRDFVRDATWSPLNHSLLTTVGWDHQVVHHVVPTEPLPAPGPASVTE
Chain of Cytochrome P450 2C9 (P11712 whole entry): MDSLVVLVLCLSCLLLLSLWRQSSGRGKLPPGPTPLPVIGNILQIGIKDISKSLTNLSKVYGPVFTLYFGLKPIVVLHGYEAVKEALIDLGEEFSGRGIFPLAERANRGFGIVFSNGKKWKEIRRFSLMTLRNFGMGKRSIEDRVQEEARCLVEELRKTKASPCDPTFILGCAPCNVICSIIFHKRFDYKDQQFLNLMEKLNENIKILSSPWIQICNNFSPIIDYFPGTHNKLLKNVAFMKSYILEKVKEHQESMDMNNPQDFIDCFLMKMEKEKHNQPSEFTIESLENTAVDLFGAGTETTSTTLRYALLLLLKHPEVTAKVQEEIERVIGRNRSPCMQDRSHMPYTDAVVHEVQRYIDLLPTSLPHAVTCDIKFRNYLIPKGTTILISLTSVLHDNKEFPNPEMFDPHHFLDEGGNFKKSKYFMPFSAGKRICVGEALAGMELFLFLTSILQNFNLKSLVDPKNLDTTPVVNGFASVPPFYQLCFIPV
Chain of Cytochrome P450 1A2 (P05177 whole entry): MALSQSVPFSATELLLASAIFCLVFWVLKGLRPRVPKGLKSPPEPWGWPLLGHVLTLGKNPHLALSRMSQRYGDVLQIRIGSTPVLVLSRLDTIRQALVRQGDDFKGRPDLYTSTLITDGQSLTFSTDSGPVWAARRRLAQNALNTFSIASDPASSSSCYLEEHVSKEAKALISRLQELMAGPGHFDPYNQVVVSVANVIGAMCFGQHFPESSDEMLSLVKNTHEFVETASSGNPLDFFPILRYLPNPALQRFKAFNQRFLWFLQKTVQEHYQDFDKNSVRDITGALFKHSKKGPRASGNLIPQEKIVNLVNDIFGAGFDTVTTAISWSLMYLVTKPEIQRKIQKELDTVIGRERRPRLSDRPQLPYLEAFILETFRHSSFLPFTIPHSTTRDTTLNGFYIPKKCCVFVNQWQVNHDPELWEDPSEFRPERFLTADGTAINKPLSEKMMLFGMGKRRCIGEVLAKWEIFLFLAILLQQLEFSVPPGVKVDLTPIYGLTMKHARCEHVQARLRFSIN
Chain of Cytochrome P450 2D6 (P10635 whole entry): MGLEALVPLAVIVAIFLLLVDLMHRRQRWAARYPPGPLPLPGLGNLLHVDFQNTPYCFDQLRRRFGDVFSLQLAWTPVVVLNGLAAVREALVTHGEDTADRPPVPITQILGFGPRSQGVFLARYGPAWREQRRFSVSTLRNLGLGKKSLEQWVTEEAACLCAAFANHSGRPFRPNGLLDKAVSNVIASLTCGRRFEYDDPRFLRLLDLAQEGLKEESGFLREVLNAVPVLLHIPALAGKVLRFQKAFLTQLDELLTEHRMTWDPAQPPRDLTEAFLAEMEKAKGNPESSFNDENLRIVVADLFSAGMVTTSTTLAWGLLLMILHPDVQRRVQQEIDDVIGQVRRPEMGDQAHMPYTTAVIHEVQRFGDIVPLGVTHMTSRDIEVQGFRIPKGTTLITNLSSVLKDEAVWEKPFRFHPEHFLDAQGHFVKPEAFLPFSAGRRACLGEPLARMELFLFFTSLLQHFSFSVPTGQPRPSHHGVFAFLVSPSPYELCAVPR

## CC(=O)N1CCC(Nc2cc(C(=O)NC[C@H](O)CN3CCc4ccccc4C3)ncn2)CC1 [PEMRAMETOSTAT]
[1]
  IC50: 25.8 nM

## CC(=O)N1CC2(CC(Nc3cc4c(cn3)C3(CC3)CN(C[C@H](O)CN3CCc5ccccc5C3)C4=O)C2)C1
[2]
  Activity: Non-toxic
[3]
  IC50: > 50000 nM
[4]
  IC50: 72.3 nM
[5]
  inhibition in vivo at 12.5 mg/kg: 104%
[6]
  IC50: 0.95 nM
[7]
  IC50: 30.1 nM
[8]
  Activity: Non-toxic
[9]
  IC50: > 50000 nM
[10]
  IC50: 55.6 nM
[11]
  IC50: > 50000 nM
[12]
  IC50: 2.25 nM
[13]
  IC50: 5.47 nM
[14]
  Activity: Non-toxic
[15]
  IC50: > 50000 nM
[16]
  fraction unbound: 0.0701
[17]
  IC50: > 50000 nM
[18]
  half-life at 1 µM: 83.6 min
[19]
  half-life at 1 µM: 17.5 min
[20]
  Activity: Non-toxic
[21]
  koff: 3.62 10^-2/s
[22]
  Activity: Non-toxic
[23]
  Activity: Non-toxic
[24]
  IC50: > 50000 nM
[25]
  IC50: > 10000 nM
[26]
  Activity: Active
[27]
  fraction unbound: 0.04
